Experimental data as given in patent US20240132431A1, “METHOD FOR ALKYLATING ACIDIC FUNCTIONAL GROUP” (Chugai Seiyaku Kabushiki Kaisha, priority 2021, published 2024).
Each block holds one compound with its values, some of them ahead of it.

Target: T1, Bcl-2 protein (Recombinant Human Bcl-2 Protein) (Homo sapiens, UniProt P10415)
T1 construct: purchased Novus NBP2-34889
Experiment: Binding evaluation of mixture library compounds to Bcl-2 using AS-MS (affinity selection mass spectrometry)
Settings: for ASMS ratio (%) n = 1 / ASMS ratio (%) n = 2: ASMS Ratio(%)=(A−C)/B×100; for ASMS ratio (%) n = 1: replicate n = 1; for ASMS ratio (%) n = 2: replicate n = 2
Summary of the method: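 ASMS Ratio (%) was calculated as (A−C)/B×100, where A is the protein sample after SEC, B the protein-free sample without SEC and C the protein-free sample after SEC. Each compound was at […] in a 1200-member pool with 20 μM Bcl-2, incubated 1 h at 23° C.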

[1] = AS-MS on the mixture of 1200 library compounds
[2] = AS-MS, mixture of 1200 compounds, Bcl-2

T1 sequence (P10415 whole entry): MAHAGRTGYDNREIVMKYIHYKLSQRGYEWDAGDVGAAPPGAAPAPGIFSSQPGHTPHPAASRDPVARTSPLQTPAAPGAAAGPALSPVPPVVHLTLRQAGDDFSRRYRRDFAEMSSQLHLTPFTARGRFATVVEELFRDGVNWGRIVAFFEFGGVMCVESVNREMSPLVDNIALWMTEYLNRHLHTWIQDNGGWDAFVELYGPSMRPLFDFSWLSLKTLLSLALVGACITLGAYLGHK

Compound: 6-[4-[3-[2-(3-Ethoxyphenyl)phenyl]propanoyl]piperazin-1-yl]-N-propylpyridazine-3-carboxamide [B1M067-01]
- ASMS ratio (%) n = 1 [2]: −1.6%
- ASMS ratio (%) n = 2 [2]: −87.4%

Compound: CCOc1cncc(-c2csc(C(=O)N3CCN(c4ccc(C(=O)NCC(F)(F)F)nn4)CC3)c2)c1 [B1K002-01, 6-[4-[4-(5-Ethoxypyridin-3-yl)thiophene-2-carbonyl]piperazin-1-yl]-N-(2,2,2-trifluoroethyl)pyridazine-3-carboxamide]
- ASMS ratio (%) n = 1 [2]: 0.0%
- ASMS ratio (%) n = 2 [2]: 0.0%

Compound: CCOc1cncc(-c2cnn(-c3cc(C(=O)N4CCN(c5ccc(C(=O)NS(=O)(=O)CCC(F)(F)F)nn5)CC4)cc(C(F)(F)F)c3)c2)c1 [B2N022-01, 6-[4-[3-[4-(5-Ethoxypyridin-3-yl)pyrazol-1-yl]-5-(trifluoromethyl)benzoyl]piperazin-1-yl]-N-(3,3,3-trifluoropropylsulfonyl)pyridazine-3-carboxamide]
- ASMS ratio (%) (n = 1): 0.0%
- ASMS ratio (%) (n = 2): 0.0%

Compound: CCOc1cccc(-c2cnn(-c3cc(C(=O)N4CCN(c5ccc(C(=O)NCC(F)(F)F)cc5)CC4)cc(C(F)(F)F)c3)c2)c1 [B1K043-01, 4-[4-[3-[4-(3-Ethoxyphenyl)pyrazol-1-yl]-5-(trifluoromethyl)benzoyl]piperazin-1-yl]-N-(2,2,2-trifluoroethyl)benzamide]
- ASMS ratio (%) n = 1 [2]: 3.8%
- ASMS ratio (%) n = 2 [2]: 1.9%

Compound: CCOc1cccc(-c2cc(C(=O)N3CCN(c4ccc(C(=O)NS(=O)(=O)CC56CC7CC(CC(C7)C5)C6)cc4)CC3)cc(C(C)(C)C)c2)c1 [B2A037-01, N-(1-Adamantylmethylsulfonyl)-4-[4-[3-tert-butyl-5-(3-ethoxyphenyl)benzoyl]piperazin-1-yl]benzamide]
- ASMS ratio (%) n = 1 (AS-MS, mixture library, Bcl-2): 3.0%
- ASMS ratio (%) n = 2 (AS-MS, mixture library, Bcl-2): 0.0%

Compound: CCOc1cncc(-c2ccc(C(C)N3CCN(c4ccc(C(=O)NS(=O)(=O)C(C)(C)C)cc4)CC3)c(F)c2)c1 (stereo not shown) [B2L100-01, N-tert-Butylsulfonyl-4-[4-[1-[4-(5-ethoxypyridin-3-yl)-2-fluorophenyl]ethyl]piperazin-1-yl]benzamide]
- ASMS ratio (%) (n = 1): 0.0%
- ASMS ratio (%) (n = 2): 0.0%

Compound: CCOc1cccc(-c2ccc(C(=O)N3CCN(c4ccc(C(=O)NCC(F)(F)F)cc4)CC3)cc2F)c1 [B1K027-01, 4-[4-[4-(3-Ethoxyphenyl)-3-fluorobenzoyl]piperazin-1-yl]-N-(2,2,2-trifluoroethyl)benzamide]
- ASMS ratio (%) n = 1 [2]: −0.8%
- ASMS ratio (%) n = 2 [2]: −3.6%

Compound: CCOc1cccc(-c2cc(CN3CCN(c4ccc(C(=O)Nc5ccc(OC)cc5)cc4)CC3)cc(OC(C)C)c2)c1 [B1O057-01, 4-[4-[[3-(3-Ethoxyphenyl)-5-propan-2-yloxyphenyl]methyl]piperazin-1-yl]-N-(4-methoxyphenyl)benzamide]
- ASMS ratio (%) n = 1 [1]: 4.1%
- ASMS ratio (%) n = 2 [1]: −2.2%

Compound: CCOc1cccc(-c2cnn(-c3cc(C(=O)N4CCN(c5ccc(C(=O)NS(C)(=O)=O)cc5)CC4)cc(C(F)(F)F)c3)c2)c1 [B2I043-01, 4-[4-[3-[4-(3-Ethoxyphenyl)pyrazol-1-yl]-5-(trifluoromethyl)benzoyl]piperazin-1-yl]-N-methylsulfonylbenzamide]
- ASMS ratio (%) (n = 1): 0.0%
- ASMS ratio (%) (n = 2): 0.0%

Compound: CCOc1cncc(-c2ccc(C(=O)N3CCN(c4ccc(C(=O)NS(=O)(=O)CC56CC7CC(CC(C7)C5)C6)cc4)CC3)c3ccccc23)c1 [B2A036-01, N-(1-Adamantylmethylsulfonyl)-4-[4-[4-(5-ethoxypyridin-3-yl)naphthalene-1-carbonyl]piperazin-1-yl]benzamide]
- ASMS ratio (%) n = 1 (AS-MS, mixture library, Bcl-2): 2.0%
- ASMS ratio (%) n = 2 (AS-MS, mixture library, Bcl-2): −0.4%

Compound: CCOc1cccc(-c2csc(C(=O)N3CCN(c4ccc(C(=O)NS(=O)(=O)CC56CC7CC(CC(C7)C5)C6)cc4)CC3)c2)c1 [B2A023-01, N-(1-Adamantylmethylsulfonyl)-4-[4-[4-(3-ethoxyphenyl)thiophene-2-carbonyl]piperazin-1-yl]benzamide]
- ASMS ratio (%) n = 1 (AS-MS, mixture library, Bcl-2): 0.0%
- ASMS ratio (%) n = 2 (AS-MS, mixture library, Bcl-2): 0.0%

Compound: CCOc1cncc(C#Cc2ccccc2CN2CCN(c3ccc(C(=O)N(CC)CC)cc3)CC2)c1 [B4J070-01]
- ASMS ratio (%) n = 1 (AS-MS, mixture library, Bcl-2): 0.0%
- ASMS ratio (%) n = 2 (AS-MS, mixture library, Bcl-2): 0.0%

Compound: CCOc1cncc(C#Cc2cc(C(=O)N3CCN(c4ccc(C(=O)Nc5ccc(OC)cc5)cc4)CC3)cc(C(F)(F)F)c2)c1 [B1O042-01, 4-[4-[3-[2-(5-Ethoxypyridin-3-yl)ethynyl]-5-(trifluoromethyl)benzoyl]piperazin-1-yl]-N-(4-methoxyphenyl)benzamide]
- ASMS ratio (%) n = 1 [1]: 2.8%
- ASMS ratio (%) n = 2 [1]: 2.1%

Compound: CCOc1cccc(-c2cc(C(=O)N3CCN(c4ccc(C(=O)NS(=O)(=O)CC56CC7CC(CC(C7)C5)C6)nn4)CC3)cc(C(F)(F)F)c2)c1 [B2A017-01, N-(1-Adamantylmethylsulfonyl)-6-[4-[3-(3-ethoxyphenyl)-5-(trifluoromethyl)benzoyl]piperazin-1-yl]pyridazine-3-carboxamide]
- ASMS ratio (%) n = 1 (AS-MS, mixture library, Bcl-2): 18.6%
- ASMS ratio (%) n = 2 (AS-MS, mixture library, Bcl-2): 7.5%

Compound: CCOc1cncc(-c2cc(C(=O)N3CCN(c4ccc(C(=O)NCC56CC7CC(CC(C7)C5)C6)cc4)CC3)cc(C(F)(F)F)c2)c1 [B1A040-01, N-(1-Adamantylmethyl)-4-[4-[3-(5-ethoxypyridin-3-yl)-5-(trifluoromethyl)benzoyl]piperazin-1-yl]benzamide]
- ASMS ratio (%) n = 1 [2]: 10.4%
- ASMS ratio (%) n = 2 [2]: 8.4%

Compound: 4-[4-[3-[2-(3-Ethoxyphenyl)phenyl]propanoyl]piperazin-1-yl]-N-propylbenzamide [B1M068-01]
- ASMS ratio (%) n = 1 [2]: 1.1%
- ASMS ratio (%) n = 2 [2]: 0.0%

Compound: CCOc1cccc(-c2ccccc2CN2CCN(c3ccc(C(=O)NS(=O)(=O)CC45CC6CC(CC(C6)C4)C5)nn3)CC2)c1 [B2A071-01, N-(1-Adamantylmethylsulfonyl)-6-[4-[[2-(3-ethoxyphenyl)phenyl]methyl]piperazin-1-yl]pyridazine-3-carboxamide]
- ASMS ratio (%) n = 1 (AS-MS, mixture library, Bcl-2): 16.1%
- ASMS ratio (%) n = 2 (AS-MS, mixture library, Bcl-2): 5.6%

Compound: CCOc1cncc(-c2cc(OC)c(CN3CCN(c4ccc(C(=O)Nc5ccc(OC)cc5)cc4)CC3)c(OC)c2)c1 [B1O060-01, 4-[4-[[4-(5-Ethoxypyridin-3-yl)-2,6-dimethoxyphenyl]methyl]piperazin-1-yl]-N-(4-methoxyphenyl)benzamide]
- ASMS ratio (%) n = 1 [1]: 0.6%
- ASMS ratio (%) n = 2 [1]: −1.8%

The next lines start with the values.

- ASMS ratio (%) (n = 1): 13.0%
- ASMS ratio (%) (n = 2): 4.8%
Compound: CCOc1cncc(-c2cc(CN3CCN(c4ccc(C(=O)NS(=O)(=O)c5ccc(NCCSc6ccccc6)c(C(F)(F)F)c5)cc4)CC3)cc(OC(C)C)c2)c1 [B2R058-01, 4-[4-[[3-(5-Ethoxypyridin-3-yl)-5-propan-2-yloxyphenyl]methyl]piperazin-1-yl]-N-[4-(2-phenylsulfanylethylamino)-3-(trifluoromethyl)phenyl]sulfonylbenzamide]

- ASMS ratio (%) n = 1 [1]: 1.1%
- ASMS ratio (%) n = 2 [1]: −1.9%
Compound: CCOc1cncc(-c2ccc(CN3CCN(c4ccc(C(=O)N(C)CC56CC7CC(CC(C7)C5)C6)nn4)CC3)c3ccccc23)c1 [B3A092-01, N-(1-Adamantylmethyl)-6-[4-[[4-(5-ethoxypyridin-3-yl)naphthalen-1-yl]methyl]piperazin-1-yl]-N-methylpyridazine-3-carboxamide]

- ASMS ratio (%) n = 1 (AS-MS, mixture library, Bcl-2): 0.0%
- ASMS ratio (%) n = 2 (AS-MS, mixture library, Bcl-2): −6.0%
Compound: CCOc1cncc(-c2ccc(C(=O)N3CCN(c4ccc(C(=O)NS(=O)(=O)c5ccc(NCCSc6ccccc6)c([N+](=O)[O-])c5)cc4)CC3)c3ccccc23)c1 [B2Q036-01, 4-[4-[4-(5-Ethoxypyridin-3-yl)naphthalene-1-carbonyl]piperazin-1-yl]-N-[3-nitro-4-(2-phenylsulfanylethylamino)phenyl]sulfonylbenzamide]

- ASMS ratio (%) n = 1 [1]: 0.0%
- ASMS ratio (%) n = 2 [1]: 0.0%
Compound: CCOc1cccc(-c2ccc(C(=O)N3CCN(c4ccc(C(=O)N(CC)CC)nn4)CC3)cc2C)c1 [B4J003-01, 6-[4-[4-(3-Ethoxyphenyl)-3-methylbenzoyl]piperazin-1-yl]-N,N-diethylpyridazine-3-carboxamide]

- ASMS ratio (%) n = 1 (AS-MS, mixture library, Bcl-2): 0.0%
- ASMS ratio (%) n = 2 (AS-MS, mixture library, Bcl-2): 0.0%
Compound: CCOc1cccc(-c2ccc(CN3CCN(c4ccc(C(=O)NS(=O)(=O)c5ccc(NCCSc6ccccc6)c([N+](=O)[O-])c5)nn4)CC3)cc2C)c1 [B2Q073-01]

- ASMS ratio (%) (n = 1): 0.0%
- ASMS ratio (%) (n = 2): 0.0%
Compound: CCOc1cncc(-c2cc(OC)c(CN3CCN(c4ccc(C(=O)NS(=O)(=O)CCC(F)(F)F)nn4)CC3)c(OC)c2)c1 [B2N086-01, 6-[4-[[4-(5-Ethoxypyridin-3-yl)-2,6-dimethoxyphenyl]methyl]piperazin-1-yl]-N-(3,3,3-trifluoropropylsulfonyl)pyridazine-3-carboxamide]

- ASMS ratio (%) n = 1 (AS-MS, mixture library, Bcl-2): 6.6%
- ASMS ratio (%) n = 2 (AS-MS, mixture library, Bcl-2): −4.1%
Compound: CCOc1cncc(C#Cc2ccccc2C(=O)N2CCN(c3ccc(C(=O)NS(=O)(=O)c4ccc(NCCSc5ccccc5)c([N+](=O)[O-])c4)cc3)CC2)c1 [B2Q030-01, 4-[4-[2-[2-(5-Ethoxypyridin-3-yl)ethynyl]benzoyl]piperazin-1-yl]-N-[3-nitro-4-(2-phenylsulfanylethylamino)phenyl]sulfonylbenzamide]

- ASMS ratio (%) (n = 1): 6.6%
- ASMS ratio (%) (n = 2): −7.8%
Compound: CCOc1cccc(-c2ccc(C(C)N3CCN(c4ccc(C(=O)NS(=O)(=O)c5ccc(NCCSc6ccccc6)c(C(F)(F)F)c5)cc4)CC3)cc2)c1 (stereo not shown) [B2R097-01, 4-[4-[1-[4-(3-Ethoxyphenyl)phenyl]ethyl]piperazin-1-yl]-N-[4-(2-phenylsulfanylethylamino)-3-(trifluoromethyl)phenyl]sulfonylbenzamide]
